Legend:
[1] = tested on: SA-β-gal; test: SA-β-gal staining of tissue sections of naturally aged mice (Example 7-3); assay type: in vivo, C57BL6J mice; conditions: stained area, LX-112 70 mg/kg oral daily 21 days
Protocol: After 22-month-old female C57BL6J mice (purchased from KRIBB Laboratory Animal Resource Center) were adapted to the experimental environment for one week, the aged mice were randomized into an experimental group and a control group. 8-week-old mice that were not aged were used as controls. LX-112 was mixed with 0.5% CMC-Na solution (purchased from Sigma) and administered orally at a concentration of 70 mg/kg daily for 21 days. The control group was administered only the solution in the same volume. After drug administration was completed, the method described in each Example below was performed.
The mouse was sacrificed, tissue sections were prepared from the organ tissues of each region, and stained for an aging marker (SA-β-gal) in the same manner as Example 1-1. Specifically, fat was removed from the tissues of each area collected from mice and fixed in 4% formalin at room temperature for more than 24 hours. For cryopreservation, the cells were placed in 30% sucrose for more than 8 hours and then rapidly frozen in cryoprotectant OCT medium for cryosectioning. The rapidly frozen tissue was commissioned to Histoa, a company specializing in histopathology services, and frozen sections were produced. The prepared frozen tissue sections were cut to a thickness of 8 μm, sectioned on a slide cover, dried at room temperature for 30 minutes, and then stored at −80° C. until use. After staining the aging marker (SA-β-gal), the images were taken through an optical microscope, and the area of the stained area was calculated using the Image J program and quantified by normalizing it based on the total area. […] FIG. 2 is a photo result of staining of adipose tissue.

[2] = tested on: HMGN1; test: HMGN1 ELISA in culture medium of A549 cancer cells (Example 12, Table 66); assay type: cell-based, human; conditions: Homo sapiens, A549, doxorubicin-induced senescent A549 cells, test compound 30 μM, ELISA, DMSO = 100; read-out: HMGN1 (amount of HMGN1 secreted in the cell culture)

For O=c1c2ccccc2[se]n1CCn1[se]c2ccccc2c1=O [LX-112, 1,2-[bis(1,2-benzisoselenazolone-3(2H)-ketone)]ethane], the “SA-β-gal (%) Kidney” value [1] was 55 (±17) %, the “SA-β-gal (%) Liver” value [1] was 58 (±6) % and the “SA-β-gal (%) Lung” value [1] was 67 (±6) %. For the same compound, the “SA-β-gal (%) Skin” value [1] was 68 (±9) % and the “SA-β-gal (%) eWAT” value [1] was 38 (±7) %.
COC(=O)c1ccc([C@H]2c3[nH]c4ccccc4c3C[C@H](C(=O)OC)N2C(=O)CCl)cc1 [LX-405] showed an activity at 30 µM [2] of 310%.
